According to PMC2279149, “Mouse N-acetyltransferase type 2, the homologue of human N-acetyltransferase type 1” (Biochemical Pharmacology, 2008):
Read-outs that look alike come from different tables or passages of the source.

How the values were obtained:
[1] = biological target: T1, mouse Nat2 (Mus musculus, UniProt P50295); assay: Substrate specific activity of mouse Nat2 (rate of CoA production, DTNB); type: biochemical; settings: substrate 500 μM, AcCoA 400 μM, 25 °C, pH 8.0
T1 construct: The mouse Nat2 open-reading frame [22] was sub-cloned into pET28b(+); hexa-histidine tag (His-tag, from pET28b(+)) (N, cleaved yes); made in house; host or cells: Escherichia coli Rosetta(DE3)pLysS
T1 sequence (P50295 1-290): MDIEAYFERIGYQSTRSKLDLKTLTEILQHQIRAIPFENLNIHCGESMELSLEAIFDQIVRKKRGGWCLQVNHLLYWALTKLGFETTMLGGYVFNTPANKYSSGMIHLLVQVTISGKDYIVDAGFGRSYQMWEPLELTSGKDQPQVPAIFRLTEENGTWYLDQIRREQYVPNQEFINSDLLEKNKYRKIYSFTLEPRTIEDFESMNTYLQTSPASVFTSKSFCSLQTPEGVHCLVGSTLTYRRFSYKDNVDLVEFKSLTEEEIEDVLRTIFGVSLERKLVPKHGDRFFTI
Experimental: The rate of production of the free thiol Coenzyme A by NAT, in the presence of a range of known NAT acetyl-acceptor substrates, was determined by using Ellman's reagent, 5,5′-dithio-bis(2-nitrobenzoic acid) (DTNB) as previously described [[2,26]]. The substrate (500 μM) and purified recombinant NAT were pre-incubated (25 °C, 5 min) in 96-well flat-bottomed polystyrene plates (Costar®, Corning Inc.) in 20 mM Tris–HCl (pH 8.0). AcCoA (400 μM) was added to start the reaction in a final volume of 100 μL. The reaction was quenched with the addition of 25 μL of guanidine–HCl solution (6.4 M guanidine–HCl, 0.1 M Tris–HCl (pH 7.3)) containing 5 mM DTNB. The absorbance at 405 nm was measured on a plate-reader (Sunrise, Tecan). Assay buffer was used to replace substrate, AcCoA or NAT for control reactions. The amount of CoA produced in the assay was determined in comparison with a CoA standard curve.
Substrate abbreviations used for the substrate selectivity assays are as follows: aniline (ANL), 4-aminobenzoic acid (PABA), 4-aminosalicylic acid (4AS), 5-aminosalicylic acid (5AS), 4-chloroaniline (CLA), 4-bromoaniline (BRA), 4-iodoaniline (IOA), 4-methoxyanline (ANS), 4-ethoxyaniline (EOA), 4-butoxyanline (BOA), 4-hexyloxyaniline (HOA), 4-phenoxyaniline (POA), 4-aminoveratrole (4AV), 2-aminofluorene (2AF), 4-aminobenzoyl-L-glutamate (pABGlu), sulfamethazine (SMZ), procainamide (PRO), 4-aminopyridine (APY), isoniazid (INH), hydralazine (HDZ) and phenylhydrazine (PHZ). The stock concentration of substrate was 100 mM dissolved in DMSO, such that the final concentration of DMSO was less than 5% in the assays. DMSO only controls were carried out.
Fig. 2 Comparison of the substrate specific activity profiles of mouse Nat2, human NAT1 and human NAT2. The substrate specific activity profiles for mouse Nat2 (grey bars), human NAT1 (cross-hatched bars) and human NAT2 (black bars) are shown. The activity of mouse Nat2 was determined by measuring the rate of CoA production, as described in Section 2. Purified mouse Nat2 (0.125 μg) was incubated with arylamine substrate (each at 500 μM) and AcCoA (400 μM) in assay buffer (20 mM Tris–HCl (pH 8.0)) containing 0.5% (v/v) DMSO at 25 °C. The specific activities were determined from the linear initial rates of reaction. All measurements were performed in triplicate and are expressed as mean ± standard deviation relative to the most rapidly acetylated substrate. The human NAT1 and NAT2 data are taken from. The abbreviations are defined in Section 2.
The rate of hydrolysis of AcCoA was measured in the presence of a wide range of acetyl-acceptors (known NAT substrates, at 500 μM) and mouse Nat2 as described in the Methods section and Supplementary Fig. 1. The assays were performed in the presence of 5% (v/v) DMSO.

[2] = biological target: T1, mouse Nat2; assay: Inhibition of mouse Nat2 acetylation of PABA (colorimetric DMAB assay); type: biochemical
Experimental: The rates of arylamine acetylation by NATs were determined colorimetrically as previously described, but with minor modifications. Each assay contained the enzyme, arylamine substrate (see each figure legends for concentrations) and AcCoA (400 μM) in a total volume of 100 μL in assay buffer (20 mM Tris–HCl (pH 8.0), 1 mM DTT). Initially, the enzyme and substrate mixtures were pre-incubated at 25 °C for 5 min and AcCoA was added to start the reaction. The reaction was quenched using 20% (w/v) trichloroacetic acid (TCA) at different time intervals. The stopped reaction was centrifuged (16,000 × […], 10 min) to pellet the precipitated proteins. The stopped reaction mixture (200 μL) was added to 800 μL of 5% (w/v) 4-(N,N-dimethylamino)benzaldehyde (DMAB) in 9:1 acetonitrile:water to develop the colour. The absorption at 450 nm was measured with a Hitachi U-2001 UV–vis spectrophotometer, with the amount of residual substrate in the reaction was determined by comparison with a standard curve.
The inhibitory effect of steroids on the rate of acetylation of arylamines by mouse Nat2 was measured by using the colorimetric DMAB assay as described in Section 2. Test compounds (50 μM, 2% DMSO unless specified) were pre-incubated with recombinant mouse Nat2 (3 ng) and PABA (75 μM) for 10 min at room temperature. AcCoA (400 μM) was added to start the reaction and the reaction mixture was incubated at 37 °C. The total reaction volume was 100 μL. Reactions were stopped at various time intervals by the addition of 100 μL of 20% (w/v) TCA. The colour was developed and measured as described in Section 2. The linear initial rate of reaction was determined and the percentage inhibition was calculated relative to the control activity measured without the inhibitor. All measurements were performed in triplicate and are expressed as mean ± standard deviation. *2% (v/v) ethanol **5% (v/v) DMSO used to dissolve the compounds in the assay.

[3] = biological target: T1, mouse Nat2; assay: 1D 1H NMR titration of mouse Nat2 with ligand; type: binding; settings: 8 equivalents of bisphenol A; 20 °C, pH 7.0
Experimental: 1D ^1H NMR spectra for hamster and mouse Nat2 were collected at 20 °C using a jump-return sequence. This sequence enabled the observation of H^N peaks which exchange to a significant extent with H2O. Spectra were collected using a 600 MHz spectrometer using a sweep width of 12,500 Hz. Unlabelled hamster and mouse Nat2 were used at a concentration of 10 mg/mL in the buffer described above. The titration of mouse Nat2 with bisphenol A was carried out by stepwise addition of small volumes (5–20 μL) of a concentrated solution of bisphenol A (100 mM in deuterated DMSO) to the mouse Nat2 solution in the NMR tube. The highest concentration of DMSO in the sample used was 2.8%. DMSO alone had no effect on the NMR spectrum of mouse Nat2 using concentrations up to 5%.

[4] = design: method as in PMID 11502892; settings: after a soy-based meal; cited from earlier work
[5] = cited from earlier work
[6] = steroidogenic compounds, inhibitor 1–500 μM, recombinant mouse Nat2 3 ng, PABA 75 μM, AcCoA 400 μM, 37 °C, read-out: IC50
[7] = xenobiotic oestrogens, recombinant mouse Nat2 3 ng, PABA 75 μM, AcCoA 400 μM, 37 °C, read-out: IC50 mNAT2

Nc1ccc2c(c1)Cc1ccccc1-2 [2AF, 2-aminofluorene]
Specific activity of mouse Nat2 with substrate [1]: high specific activities
Specific activity of mouse Nat2 with substrate ([1]; listed as 2-aminofluorene): readily acetylates

Nc1ccc(C(=O)O)c(O)c1 [4AS, 4-aminosalicylic acid]
Specific activity of mouse Nat2 with substrate [1]: high specific activities

Nc1ccc(O)c(C(=O)O)c1 [5AS, 5-aminosalicylic acid]
Specific activity of mouse Nat2 with substrate [1]: high specific activities

CC(=O)[C@@]1(O)CC[C@H]2[C@@H]3CCC4=CC(=O)CC[C@]4(C)[C@H]3CC[C@@]21C [17-Hydroxy-progesterone]
IC50 [2, 6]: > 500 µM

C[C@]12CC[C@@H]3c4ccc(O)cc4CC[C@H]3[C@@H]1CC[C@@H]2O [17-Hydroxy-β-estradiol]
IC50 [2, 6]: 55 ± 5 µM

C[C@H]1CCC[C@H](O)CCC/C=C/c2cc(O)cc(O)c2C(=O)O1 [Alpha-Zearalenol]
IC50 [2, 7]: 70 ± 10 µM

C[C@]12CCC(=O)C=C1CC[C@@H]1[C@@H]2CC[C@]2(C)C(=O)CC[C@@H]12 [Androsteinedione]
IC50 [2, 6]: > 500 µM

C[C@H]1CCC[C@@H](O)CCC/C=C/c2cc(O)cc(O)c2C(=O)O1 [Beta-Zearalenol]
IC50 [2, 7]: 450 ± 10 µM

CC(C)(c1ccc(O)cc1)c1ccc(O)cc1 [Bisphenol A]
Change in chemical shift of histidine peak 1 (downfield) [3]: ~0.12 ppm
Change in chemical shift of histidine peak 4 (upfield) [3]: ~0.08 ppm
IC50 [2, 7]: 290 ± 10 µM

C[C@]12CC[C@@H]3c4ccc(O)cc4CC[C@H]3[C@@H]1CCC2=O [Estrone]
IC50 [2, 6]: 370 ± 10 µM

O=c1c(-c2ccc(O)cc2)coc2cc(O)cc(O)c12 [Geni stein, genistein]
Circulating plasma concentration [4]: ≤ 18 µM
IC50 [2]: 45 ± 5 µM

NNc1nncc2ccccc12 [HDZ, hydralazine]
Specific activity of mouse Nat2 with substrate [1]: low specific activities

NNC(=O)c1ccncc1 [INH, isoniazid]
Specific activity of mouse Nat2 with substrate [1]: low specific activities

Nc1ccc(C(=O)O)cc1 [PABA, 4-aminobenzoic acid]
Specific activity of mouse Nat2 with substrate [1]: high specific activities

NNc1ccccc1 [PHZ, phenylhydrazine]
Specific activity of mouse Nat2 with substrate [1]: low specific activities

CC(=O)[C@H]1CC[C@H]2[C@@H]3CC=C4C[C@@H](O)CC[C@]4(C)[C@H]3CC[C@]12C [Pregnelone]
IC50 [2, 6]: > 100 µM

CC/C(=C(\c1ccccc1)c1ccc(OCCN(C)C)cc1)c1ccccc1 [Tamoxifen]
Intratumoral level [5]: micromolar concentrations

C[C@]12CC[C@H]3[C@@H](CCC4=CC(=O)CC[C@@]43C)[C@@H]1CC[C@@H]2O [Testosterone]
IC50 [2, 6]: > 500 µM

C[C@H]1CCCC(=O)CCC/C=C/c2cc(O)cc(O)c2C(=O)O1 [Zearalenone]
IC50 [2]: 220 ± 10 µM

CCN(CC)CCNC(=O)c1ccc(N)cc1 [procainamide]
Specific activity of mouse Nat2 with substrate [1]: low specific activities

Cc1cc(C)nc(NS(=O)(=O)c2ccc(N)cc2)n1 [sulfamethazine]
Specific activity of mouse Nat2 with substrate [1]: low specific activities
